Key:
[1] = Moisture sorption / hygroscopicity of treprostinil diethanolamine polymorphs; format: physicochemical; conditions: for weight gain in humidity chamber: 23 days
Experimental: The initial material synthesized (termed Form A) was characterized using X-ray powder diffraction (XRPD), differential scanning calorimetry (DSC), thermogravimetry (TG), hot stage microscopy, infrared (IR) and Raman spectroscopy, and moisture sorption. The IR and Raman spectra for Form A are shown in FIGS. 16 and 17, respectively. […] The moisture sorption data are shown graphically in FIG. 19. […] In addition, hygroscopicity of treprostinil diethanolamine was evaluated in humidity chambers at approximately 52% RH and 68% RH. […] Upon desorption from 95% down to 5% RH, the sample loses approximately 47%.

[2] = slurry inter-conversion in isopropanol and tetrahydrofuran
Source text: Form A is made according to the methods in Table 15. Form B is made from Form A, in accordance with the procedures of Table 16.

[3] = Treprostinil plasma concentrations in rats after a single intraduodenal dose of prodrugs (Example 3); conditions: rat; for Tmax (of Treprostinil) / Maximum Treprostinil concentrations: intraduodenal; for Maximum Treprostinil concentrations: 5 minutes post-dosing; for adverse reactions following intraduodenal administration: single intraduodenal dose
Source text: This example illustrates a pharmacokinetic study of treprostinil following administration of a single duodenal dose of treprostinil and various prodrugs of the present invention.
In this study, the area under the curve of Treprostinil in male Sprague-Dawley rats following a single intraduodenal dose of treprostinil monophosphate (ring), treprostinil monovaline (ring), treprostinil monoalanine (ring) or treprostinil monoalanine (chain), prodrugs of treprostinil was compared. The compounds were as follows:
This solution was further diluted with 1.50 mL of PEG 400:Polysorbate 80:Water, 40:1:49.
A 50 mg/mL solution of treprostinil monovaline (ring) was prepared in dimethylacetamide (DMA). A 25 μL aliquot of the 50 mg/mL stock solution was then diluted with 175 μL of DMA and 1.8 mL of PEG 400:Polysorbate 80:Water, 40:1:49.
This solution was further diluted with 1.60 mL of PEG 400:polysorbate 80:Water, 40:1:49. The final concentration of the dosing vehicle was 0.590 mg/mL of treprostinil monoalanine (ring) equivalent to 0.5 mg/mL of Treprostinil.
A solution of treprostinil monoalanine (chain) was prepared by dissolving 0.83 mg of treprostinil monoalanine (chain) in 0.14 mL of dimethylacetamide (DMA) until dissolved. This solution was further diluted with 1.26 mL of PEG 400:Polysorbate 80:Water, 40:1:49.
The plasma concentrations of Treprostinil following […] of each prodrug were evaluated in male Sprague-Dawley rats. […] All groups were dosed on day 1 of the study.
Animals were dosed via an indwelling duodenal cannula.
The blood samples were withdrawn and placed into tubes containing 30 μL of a solution of 500 units per mL of heparin in saline, and centrifuged at 13,000 rpm for 10 minutes. Approximately 200 μL of plasma was then removed and dispensed into appropriately labeled polypropylene tubes containing 4 μL of acetic acid in order to stabilize any prodrug remaining in the samples. The plasma samples were frozen at −20° C. and were transported on ice to Absorption Systems Exton Facility. There they were stored in a −80° C. freezer pending analysis.
Plasma samples were analyzed using the methods described above. In brief, Treprostinil was extracted from the plasma via solid phase extraction then analyzed by LC/MS/MS. The lower limit of quantification (LLOQ) of the analytical method was 0.03 ng/mL.
Pharmacokinetic analysis was performed on the plasma concentration of Treprostinil for each individual rat at each time point and on the average plasma concentration for all three rats in the group for each time point.
The following formula was used to determine relative bioavailability (F): Relative F=(AUC(Prodrug Dose)/Dose)/(AUC(Treprostinil Dose)/Dose)*100

[4] = subcutaneous infusion; cited from earlier work
[5] = Treprostinil plasma concentrations in rats after a single oral dose of prodrugs (Example 2); format: in vivo, male Sprague-Dawley rats; conditions: rat; for Treprostinil AUC compared with dosing the active compound: oral; for adverse reactions following oral administration: single oral dose
Experimental: In this Example, Treprostinil concentrations were determined in male Sprague-Dawley rats following a single oral dose of the following compounds:
A solution of treprostinil methyl ester was prepared by dissolving 2.21 mg of treprostinil methyl ester with 0.85 mL of dimethylacetamide (DMA). […] The final concentration of the dosing vehicle was 0.26 mg/mL of treprostinil methyl ester equivalent to 0.25 mg/mL of Treprostinil.
A solution of treprostinil benzyl ester was prepared by dissolving 2.58 mg of treprostinil benzyl ester with 0.84 mL of dimethylacetamide (DMA). […] The final concentration of the dosing vehicle was 0.268 mg/mL of treprostinil benzyl ester equivalent to 0.25 mg/mL of Treprostinil.
A solution of treprostinil diglycine was prepared by dissolving 1.86 mg of compound with 0.58 mL of dimethylacetamide (DMA). […] The final concentration of the dosing vehicle was 0.323 mg/mL of treprostinil diglycine equivalent to 0.25 mg/mL of Treprostinil.
Groups I-III were dosed on the same day.
Animals were dosed via oral gavage.
Plasma samples were analyzed as described in Example 1. In brief, Treprostinil was extracted from the plasma via liquid-liquid extraction then analyzed by LC/MS/MS. The analytical validation results were reported previously in Example 1. […] Samples were not assayed for unchanged prodrug.

[6] = Clinical Study 01-101: escalating doses of UT-15C oral solution; conditions: for mean absolute bioavailability: based on historical intravenous treprostinil sodium data
Experimental: Prior to proceeding directly into clinical studies with a sustained release (SR) solid dosage form of UT-15C (treprostinil diethanolamine), a determination of the pharmacokinetics of an oral “immediate release” solution was performed.
A Safety, Tolerability, and Pharmacokinetic Study of Multiple Escalating Doses of UT-15C (Treprostinil Diethanolamine) Administered as an Oral Solution in Healthy Adult Volunteers (Including Study of Bioavailability).
Study endpoints included standard safety assessments (adverse events, vital signs, laboratory parameters, physical examinations, and electrocardiograms) as well as pharmacokinetic parameters.

Q: With `CCCCC[C@H](O)CC[C@@H]1[C@H]2Cc3cccc(OCC(=O)O)c3C[C@H]2C[C@H]1O.OCCNCCO` [Form A] as the molecule, how does the hygroscopicity [1] read?
A: hygroscopic

Q: And the “weight gain during moisture sorption” value ([1]; beginning between 65 to 75% RH)?
A: > 33%

Q: What about the “thermodynamic stability of the crystal form” value [2] of the same molecule?
A: metastable

Q: For `CCCCCC(O)CCC1C(OP(=O)(O)O)CC2Cc3c(cccc3OCC(=O)O)CC21` (centres unmarked) [treprostinil monophosphate (ring), 2-Monophosphate Ester of Treprostinil], which “Tmax (of Treprostinil)” value [3] is on record?
A: 5 min

Q: And the “Maximum Treprostinil concentrations” value [3]?
A: approximately 9 ng/mL

Q: What about the “adverse reactions following intraduodenal administration” value [3] of the same molecule?
A: No adverse reactions were observed

Q: Which “Tmax (of Treprostinil)” value [3] does the source give for `CCCCC[C@@H](CC[C@@H]1[C@H]2Cc3cccc(OCC(=O)O)c3C[C@H]2C[C@H]1O)OC(=O)[C@H](C)N` [treprostinil monoalanine (chain), 3′-L-Alanyl Ester of Treprostinil] here?
A: 5 min

Q: And the “Maximum Treprostinil concentrations” value [3]?
A: approximately 9 ng/mL

Q: What about the “adverse reactions following intraduodenal administration” value [3] of the same molecule?
A: No adverse reactions were observed

Q: For `CCCCC[C@H](O)CC[C@@H]1[C@H]2Cc3cccc(OCC(=O)[O-])c3C[C@H]2C[C@H]1O.[Na+]` [treprostinil sodium, (1R,2R,3aS,9aS)-[[2,3,3a,4,9,9a-Hexahydro-2-hydroxy-1-[(3S)-3-hydroxyoctyl]-1H-benz[f]inden-5-yl]oxy]acetic acid monosodium salt], which absolute bioavailability [4] is on record?
A: ~100%

Q: With `CCCCC[C@@H](O)CC[C@@H]1C2Cc3cccc(OCC(=O)OCc4ccccc4)c3CC2C[C@H]1O` (some centres unmarked) [Treprostinil benzyl ester, Benzyl Ester of Treprostinil] as the molecule, how does the “Treprostinil AUC compared with dosing the active compound” value [5] read?
A: greater than that after dosing of the active compound

Q: What about the “adverse reactions following oral administration” value [5] of the same molecule?
A: No adverse reactions were observed

Q: Which results are given for `CCCCC[C@H](O)CC[C@@H]1[C@H]2Cc3cccc(OCC(=O)O)c3C[C@H]2C[C@H]1O.OCCNCCO` [UT-15C, Treprostinil Diethanolamine]?
A: Treprostinil plasma concentrations detectable [6]: detectable in all subjects; changes in hematology, clinical chemistry, urinalysis, vital signs, physical exams, and ECGs [6]: no clinically significant, treatment emergent changes; most frequently reported adverse events [6]: flushing, headache, and dizziness; mean absolute bioavailability ([6]; 0.2 mg total dose): 21%; mean absolute bioavailability ([6]; 0.5 mg total dose): 23%; mean absolute bioavailability ([6]; 1.0 mg total dose): 24%; mean absolute bioavailability ([6]; 2.0 mg total dose): 25%; highest (treprostinil plasma) concentration observed ([6]; after the third dose aliquot of the 2.0 mg total dose): 5.51 ng/mL; tolerability ([6]; all doses given): well tolerated by the majority of subjects; AUCinf and Cmax versus dose ([6]; each of the four dose aliquots): increased in a linear fashion with dose; weight gain in humidity chamber ([1]; ~52% RH): 4.9%; weight gain in humidity chamber ([1]; ~68% RH): 28%

Q: Which “Treprostinil AUC compared with dosing the active compound” value [5] does the source give for `CCCCC[C@H](O)CC[C@@H]1[C@H]2Cc3cccc(OCC(=O)OC)c3C[C@H]2C[C@H]1O` [Treprostinil methyl ester, Methyl Ester of Treprostinil] here?
A: less than that after dosing the active compound

Q: And the “adverse reactions following oral administration” value [5]?
A: No adverse reactions were observed

Q: Which results are given for `CCCCCC(O)CCC1C(OC(=O)C(C)N)CC2Cc3c(cccc3OCC(=O)O)CC21` [treprostinil monoalanine (ring), 2-L-Alanine Ester of Treprostinil]?
A: Tmax (of Treprostinil) [3]: 60 min; adverse reactions following intraduodenal administration [3]: No adverse reactions were observed

Q: Which results are given for `CCCCCC(O)CCC1C(OC(=O)C(N)C(C)C)CC2Cc3c(cccc3OCC(=O)O)CC21` [treprostinil monovaline (ring), 2-L-Valine Ester of Treprostinil]?
A: Tmax (of Treprostinil) [3]: 120 min; adverse reactions following intraduodenal administration [3]: No adverse reactions were observed

Q: Which results are given for `CCCCC[C@H](CC[C@@H]1C2Cc3cccc(OCC(=O)O)c3CC2C[C@H]1OC(=O)CN)OC(=O)CN` (some centres unmarked) [Treprostinil diglycine, Bis-Glycyl Ester of Treprostinil]?
A: Treprostinil AUC compared with dosing the active compound [5]: greater than that after dosing of the active compound; adverse reactions following oral administration [5]: No adverse reactions were observed

Q: What does the source list for `CCCCC[C@H](O)CC[C@@H]1[C@H]2Cc3cccc(OCC(=O)O)c3C[C@H]2C[C@H]1O.OCCNCCO` [Form B]?
A: weight loss in moisture sorption ([1]; 5% RH): minimal weight loss; water absorbed ([1]; 95% RH): approximately 49%; loss upon desorption ([1]; from 95% down to 5% RH): approximately 47%

Source: patent US11292758B2, “Compounds and methods for delivery of prostacyclin analogs” (United Therapeutics Corporation, priority 2003, dated 2022)
